In experiment [1] the test system is target cells (C1R-A33) pulsed with peptide. The experiment is described as follows: IFN-gamma ELISA of CTL lines (HLA-A*33:03). The experiment is classed as cell-based, human. Conditions: CTL line against peptide-pulsed C1R-A33. Here is the method: CTLs were propagated using methods similar to those reported by Riddell et al. (Walter E A et al., N Engl J Med 1995, 333(16): 1038-44; Riddell S R et al., Nat Med 1996, 2(2): 216-23). The CTLs were cultured in 25 ml 5% ABS/AIM-V medium together with two types of Mitomycin C-treated human B lymphoblastoid cell lines (5×10^6 cells/25 ml medium each) and an anti-CD3 antibody (final concentration: 40 ng/ml). On the day after beginning of the culturing, IL-2 (final concentration: 120 IU/ml) was added to the culture. On days 5, 8 and 11, the medium was changed to a 5% ABS/AIM-V medium containing IL-2 (final concentration: 30 IU/ml) (Tanaka H et al., Br J Cancer 2001, 84(1): 94-9; Umano Y et al., Br J Cancer 2001, 84(8): 1052-7; Uchida N et al., Clin Cancer Res 2004, 10(24): 8577-86; Suda T et al., Cancer Sci 2006, 97(5): 411-9; Watanabe T et al., Cancer Sci 2005, 96(8): 498-506).
(§1) Peptide-pulsed C1R-A33 (1×10^4 cells/well) was prepared as the target cell. The IFN-gamma ELISPOT assay and IFN-gamma ELISA were performed according to the assay kit manufacturer's manual.

Another experiment concerns peptide-pulsed C1R-A33. The experiment is described as follows: In vitro CTL induction, IFN-gamma ELISPOT assay (HLA-A*33:03). The experiment is classed as cell-based, human. Conditions: CD8 positive T cells of HLA-A*33:03-positive donors after three stimulations with peptide-pulsed DCs; peptide-pulsed vs non-pulsed C1R-A33. Here is the method:
(§2) Monocyte-derived dendritic cells (DCs) were used as the antigen-presenting cell to induce a specific cytotoxic T lymphocyte (CTL) response against peptides presented on human leukocyte antigens (HLAs). As already reported in literatures, DCs were generated in vitro (Nakahara S et al., Cancer Res 2003, 63(14): 4112-8). Specifically, peripheral-blood mononuclear cells (PBMCs) collected from healthy volunteers (HLA-A*33:03-positive) with the Ficoll-Paque plus solution (Pharmacia) were seeded in plastic tissue culture dishes (Corning) to let the monocytes in the PBMCs adhere to the dishes. This was cultured in the presence of 1000 IU/ml granulocyte macrophage colony-stimulating factor (R&D System) and 1000 IU/ml interleukin (IL)-4 (R&D System) for seven days. An AIM-V medium (Invitrogen) containing 5% inactivated AB-type serum (ABS) was used as the medium. DCs that were induced to differentiate from monocytes using the cytokines were pulsed with 20 micro-g/ml of each synthesized peptide (37 degrees C., three hours). Peptide pulsing was carried out in an AIM-V medium containing 3 micro-g/ml beta 2-microglobulin. These peptide-pulsed DCs were inactivated by X-ray irradiation (20 Gy), mixed in a 1:20 ratio with autologous CD8 positive T cells obtained by positive selection using the CD8 Positive Isolation Kit (Invitrogen) (1.5×10^4 DCs and 3×10^5 CD8 positive T cells), and cultured in a 48-well plate (Corning). Each well contained 0.5 ml of the 5% ABS/AIM-V medium, and IL-7 (R&D System) was added thereto (final concentration: 10 ng/ml). Two days after the start of the culture, IL-2 (Novartis) was added (final concentration: 20 IU/ml). On day 7 and day 14 of culture, the CD8 positive T cells were further stimulated with peptide-pulsed DCs. The DCs were prepared at the time of use by the same method as above. […]

The next experiment deals with peptide-pulsed C1R-A01. The experiment is described as follows: In vitro CTL induction, IFN-gamma ELISPOT assay (HLA-A*01:01). It is filed as cell-based, human. Conditions: CD8 positive T cells of HLA-A*01:01-positive donors after three stimulations with peptide-pulsed DCs; peptide-pulsed vs non-pulsed C1R-A01. Here is the method:
as §2, with “(CTL)” for “(CTL) response”, “(HLA-A*01:01-positive)” for “(HLA-A*33:03-positive) with the Ficoll-Paque plus solution (Pharmacia)”, “by” for “by positive selection”, “(Corning).” for “(Corning). Each well contained 0.5 ml of the 5% ABS/AIM-V medium, and IL-7 (R&D System) was added thereto (final concentration: 10 ng/ml). Two days after the start of the culture, IL-2 (Novartis) was added (final concentration: 20 IU/ml). On day 7 and day 14 of culture, the CD8 positive T cells were further stimulated with peptide-pulsed DCs. The DCs were prepared at the time of use by the same method as above.”

Experiment [2] concerns target cells (C1R-A33) pulsed with peptide. In words: IFN-gamma ELISA of CTL clones established by limiting dilution (HLA-A*33:03). It is filed as cell-based, human. Conditions: CTL clone against peptide-pulsed C1R-A33. Here is the method: (§3) After induction of CTLs in vitro, the CTLs were seeded onto 96-well round-bottomed microplates (Nalge Nunc International) at 1 cell/well or 10 cells/well. The CTLs were cultured with two types of Mitomycin C-treated human B lymphoblastoid cell lines (1×10^4 cells/well each) in a total of 150 micro-l/well 5% ABS/AIM-V medium with an anti-CD3 antibody (final concentration: 30 ng/ml) and IL-2 (final concentration: 125 IU/ml). Ten days later, 50 micro-l 5% ABS/AIM-V medium containing 500 IU/ml IL-2 was added to the culture.
as §1
For orientation: In an ELISA, binding on a coated surface is turned into a signal by an enzyme label.

The test system of experiment [3] is COS7 cells expressing FOXM1 and HLA-A*33:03. The experiment is described as follows: IFN-gamma production of CTL clone against target cells expressing FOXM1 and HLA-A*33:03. The experiment is classed as cell-based, African green monkey. An excerpt:
A cDNA encoding the FOXM1 or HLA-A*33:03 gene was amplified by PCR. The PCR-amplified product was each incorporated into an expression vector. Either or both of the FOXM1 gene-expressing vector and the HLA-A*33:03 gene-expressing vector were introduced into COS7 cells, which is a cell line negative for HLA, using Lipofectamine 2000 (Invitrogen). On the day after gene introduction, COS7 cells were detached and harvested using versene (Invitrogen), and used as the target cell for confirmation of IFN-gamma production (5×10^4 cells/well).
IFN-gamma production of the FOXM1-A33-9-308 (SEQ ID NO: 2)-specific CTL clone against target cells expressing FOXM1 and HLA-A*33:03 was investigated. COS7 cells expressing both FOXM1 and HLA-A*33:03 were prepared as the target cell. COS7 cells expressing either one of FOXM1 and HLA-A*33:03 were prepared as the negative control cell. […] This clearly proves that FOXM1-A33-9-308 (SEQ ID NO: 2) is a peptide generated by antigen processing, and is presented on the cell surface with the HLA-A*33:03 molecule and recognized by CTLs.

The test system of experiment [4] is target cells (C1R-A01) pulsed with peptide. The experiment is described as follows: IFN-gamma ELISA of CTL clones established by limiting dilution (HLA-A*01:01). Conditions: CTL clone against peptide-pulsed C1R-A01; listed as FOXM1-A01-9-233. It is filed as cell-based, human. Here is the method: as §3
Peptide-pulsed C1R-A01 (1×10^4 cells/well) was prepared as the target cell. The IFN-gamma ELISPOT assay and IFN-gamma ELISA were performed according to the assay kit manufacturer's manual.

“Also recorded” adds a separate entry of the source.

On to “MSSELARHSK (a peptide derived from FOXM1) [SEQ ID NO: 39]”, for which the “IFN-gamma production by the CTL line (ELISA)” value in experiment [1] (listed as FOXM1-A33-10-391) is “observed; also recorded: CTL lines that produce IFN-gamma in a peptide-specific manner were established”. On to “ASLMSSELAR (a peptide derived from FOXM1) [SEQ ID NO: 46]”, for which the “peptide-specific IFN-gamma production (ELISPOT)” value with peptide-pulsed C1R-A33 is listed as “observed”. On to “KTELPLGARR (a peptide derived from FOXM1) [SEQ ID NO: 61]”, for which the “peptide-specific IFN-gamma production (ELISPOT)” value in the experiment with peptide-pulsed C1R-A01 is given as “observed”. “WTIHPSANR (a peptide derived from FOXM1) [SEQ ID NO: 2]”: in experiment [1] (listed as FOXM1-A33-9-308), the “IFN-gamma production by the CTL line (ELISA)” value is listed as “observed; also recorded: CTL lines that produce IFN-gamma in a peptide-specific manner were established”. For the same sequence, the “peptide-specific IFN-gamma production of CTL clone (ELISA)” value in experiment [2] (listed as FOXM1-A33-9-308) is “showed a peptide-specific IFN-gamma production”. Besides, the “IFN-gamma production of peptide-specific CTL clone” value is reported as “showed IFN-gamma production” in experiment [3] (COS7 cells expressing both FOXM1 and HLA-A*33:03); “a significant IFN-gamma production was not observed; also recorded: a significant IFN-gamma production was not shown” in experiment [3] (negative control: COS7 cells expressing either one of FOXM1 and HLA-A*33:03, listed as FOXM1-A33-9-308). In the case of “NLSLHDMFVR (a peptide derived from FOXM1) [SEQ ID NO: 25]”, the “peptide-specific IFN-gamma production (ELISPOT)” value in the experiment with peptide-pulsed C1R-A33 is “not observed”. In the case of “SLSNIQWLR (a peptide derived from FOXM1) [SEQ ID NO: 1]”, the “peptide-specific IFN-gamma production (ELISPOT)” value in the experiment with peptide-pulsed C1R-A33 was “observed”.

In the case of “AARDVNLPR (a peptide derived from FOXM1) [SEQ ID NO: 7]”, in experiment [1] (listed as FOXM1-A33-9-146), the “IFN-gamma production by the CTL line (ELISA)” value is listed as “observed; also recorded: CTL lines that produce IFN-gamma in a peptide-specific manner were established”. In addition, the “peptide-specific IFN-gamma production of CTL clone (ELISA)” value in experiment [2] (listed as FOXM1-A33-9-146) is recorded as “showed a peptide-specific IFN-gamma production”. In the case of “VSERPPYSY (a peptide derived from FOXM1) [SEQ ID NO: 48]”, in experiment [4], the “peptide-specific IFN-gamma production of CTL clone (ELISA)” value was “showed a peptide-specific IFN-gamma production”.

Take “WIEDHFPYFK (a peptide derived from FOXM1) [SEQ ID NO: 42]”: in the experiment with peptide-pulsed C1R-A01, the “peptide-specific IFN-gamma production (ELISPOT)” value was “not observed”. For the same sequence, in experiment [1] (listed as FOXM1-A33-10-265), the “IFN-gamma production by the CTL line (ELISA)” value is reported as “observed; also recorded: CTL lines that produce IFN-gamma in a peptide-specific manner were established”.

For the origin of these results see US11242365B2, “FOXM1-derived peptide, and vaccine including same” (OncoTherapy Science, Inc., priority 2015, dated 2022).
